ChEMBL document CHEMBL3627631, “Inactivation of protein tyrosine phosphatases by dietary isothiocyanates” (Bioorg Med Chem Lett, 2015)
The source made the active and inactive calls. No cut-off for these calls is given here.

How the values were obtained:
[1] = biological target: T1, Tyrosine-protein phosphatase non-receptor type 1 (Homo sapiens) (UniProt P18031); assay: Reversible inhibition of recombinant human PTP1B catalytic domain (1 to 322 amino acid residues) in 3,3-dimethylglutarate buffer assessed as inactivation constant kr
T1 sequence (whole entry): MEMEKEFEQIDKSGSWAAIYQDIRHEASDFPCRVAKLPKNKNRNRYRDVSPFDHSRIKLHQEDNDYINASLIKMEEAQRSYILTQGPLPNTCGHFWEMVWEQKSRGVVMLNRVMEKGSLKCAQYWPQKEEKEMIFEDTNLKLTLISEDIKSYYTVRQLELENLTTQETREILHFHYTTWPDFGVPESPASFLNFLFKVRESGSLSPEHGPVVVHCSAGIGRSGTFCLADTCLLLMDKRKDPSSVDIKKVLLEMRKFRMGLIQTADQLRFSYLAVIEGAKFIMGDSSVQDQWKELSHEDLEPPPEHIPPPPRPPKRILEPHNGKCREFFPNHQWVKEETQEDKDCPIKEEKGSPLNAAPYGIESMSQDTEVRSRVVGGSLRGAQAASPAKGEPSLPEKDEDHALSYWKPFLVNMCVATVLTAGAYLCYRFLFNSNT

[2] = biological target: T2, Tyrosine-protein phosphatase non-receptor type 11 (Homo sapiens) (UniProt Q06124); assay: Inhibition of recombinant human SHP2 catalytic domain (246 to 527 amino acid residues) in 3,3-dimethylglutarate buffer using pNPP as substrate assessed as apparent second order rate constant after 10 mins
T2 sequence (whole entry): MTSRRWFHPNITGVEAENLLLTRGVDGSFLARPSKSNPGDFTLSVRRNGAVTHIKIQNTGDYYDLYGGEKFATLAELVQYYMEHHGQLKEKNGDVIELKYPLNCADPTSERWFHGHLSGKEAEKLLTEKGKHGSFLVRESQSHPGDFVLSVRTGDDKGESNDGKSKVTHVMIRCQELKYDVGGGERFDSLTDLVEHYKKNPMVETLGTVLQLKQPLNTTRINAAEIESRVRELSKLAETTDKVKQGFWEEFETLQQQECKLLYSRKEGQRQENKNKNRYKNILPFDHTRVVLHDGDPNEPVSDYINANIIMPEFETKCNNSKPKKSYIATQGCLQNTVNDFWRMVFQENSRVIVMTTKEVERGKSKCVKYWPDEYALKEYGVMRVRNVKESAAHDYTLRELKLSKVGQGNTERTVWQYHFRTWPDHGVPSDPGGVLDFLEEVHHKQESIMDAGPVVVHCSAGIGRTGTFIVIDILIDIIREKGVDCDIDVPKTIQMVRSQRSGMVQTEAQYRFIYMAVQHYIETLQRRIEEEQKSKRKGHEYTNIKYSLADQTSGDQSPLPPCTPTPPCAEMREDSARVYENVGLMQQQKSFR

[3] = biological target: T2, Tyrosine-protein phosphatase non-receptor type 11 (Homo sapiens); assay: Inhibition of recombinant human SHP2 catalytic domain (246 to 527 amino acid residues) in 3,3-dimethylglutarate buffer using pNPP as substrate assessed as p-nitrophenolate release by spectrophotometric analysis in presence of reversible, site-directed inhibitor phosphate, arsenate
[4] = biological target: T2, Tyrosine-protein phosphatase non-receptor type 11 (Homo sapiens); assay: Inhibition of recombinant human SHP2 catalytic domain (246 to 527 amino acid residues) in Tris buffer using pNPP as substrate assessed as apparent second order rate constant after 10 mins
[5] = biological target: T1, Tyrosine-protein phosphatase non-receptor type 1 (Homo sapiens); assay: Reversible inhibition of recombinant human PTP1B catalytic domain (1 to 322 amino acid residues) in 3,3-dimethylglutarate buffer assessed as inactivation constant kf
[6] = Chemical stability of the compound in 3,3-dimethylglutarate buffer containing DTPA, sodium acetate, Tween 80 at 500 uM at pH 7.0 at 30 degC incubated for 2.5 hrs prior to addition of PTP1B; assay type: physicochemical; details: pH 7, 2.5 h
[7] = Chemical stability of the compound in Bis-Tris and Tris buffer containing DTPA, sodium acetate, Tween 80 at 500 uM at pH 7.0 at 30 degC incubated for 2.5 hrs prior to addition of PTP1B; assay type: physicochemical; details: pH 7, 2.5 h
[8] = biological target: T1, Tyrosine-protein phosphatase non-receptor type 1 (Homo sapiens); assay: Reversible inhibition of recombinant human PTP1B catalytic domain (1 to 322 amino acid residues) in Tris buffer assessed as inactivation constant kf
[9] = biological target: T1, Tyrosine-protein phosphatase non-receptor type 1 (Homo sapiens); assay: Reversible inhibition of recombinant human PTP1B catalytic domain (1 to 322 amino acid residues) measured for 3 hrs by gel filtration assay
[10] = biological target: T1, Tyrosine-protein phosphatase non-receptor type 1 (Homo sapiens); assay: Reversible inhibition of recombinant human PTP1B catalytic domain (1 to 322 amino acid residues) in Tris buffer assessed as inactivation constant kr
[11] = biological target: T1, Tyrosine-protein phosphatase non-receptor type 1 (Homo sapiens); assay: Inhibition of recombinant human PTP1B catalytic domain (1 to 322 amino acid residues) using pNPP as substrate assessed as p-nitrophenolate release at 500 uM incubated with first aliquot of enzyme for 2000 secs followed by addition of second aliquot of enzyme measured for 1500 secs by spectrophotometric analysis
[12] = biological target: T1, Tyrosine-protein phosphatase non-receptor type 1 (Homo sapiens); assay: Inhibition of recombinant human PTP1B catalytic domain (1 to 322 amino acid residues) using pNPP as substrate assessed as p-nitrophenolate release at 200 uM after 10 mins by spectrophotometric analysis in presence of reversible, site-directed inhibitor phosphate, arsenate
[13] = biological target: T1, Tyrosine-protein phosphatase non-receptor type 1 (Homo sapiens); assay: Inhibition of recombinant human PTP1B catalytic domain (1 to 322 amino acid residues) using pNPP as substrate assessed as p-nitrophenolate release after 10 mins by spectrophotometric analysis in presence of catalase, superoxide dismutase and mannitol

## C[S+]([O-])CCCCN=C=S (stereo not drawn)
[1]
  K: 1.4 ×10⁻⁴ /s
[2]
  Kapp: 3.7 M⁻¹ s⁻¹
[3]
  inhibition: inactive
[4]
  Kapp: 3.5 M⁻¹ s⁻¹
[5]
  K: 2.4 M⁻¹ s⁻¹

## C=CCN=C=S [ALLYL ISOTHIOCYANATE]
[6]
  Stability: Stable
[1]
  K: 8.3 ×10⁻⁵ /s
[7]
  Stability: Unstable
[8]
  K: 2.3 M⁻¹ s⁻¹
[9]
  inhibition: Active
[2]
  Kapp: 9 M⁻¹ s⁻¹
[10]
  K: 2.3 ×10⁻⁴ /s
[3]
  inhibition: inactive
[11]
  inhibition: Active
[4]
  Kapp: 16 M⁻¹ s⁻¹
[5]
  K: 2.7 M⁻¹ s⁻¹
[12]
  inhibition: inactive
[13]
  inhibition: Active
